The results in this text go back to ChEMBL document CHEMBL4507299, “Data for DCP probe PF-04554878” (2021).

The target in experiment [1] is Casein kinase I isoform delta (Homo sapiens) (UniProt P48730). The experiment can be described thus: CKLdelta Invitrogen kinase activity assay. The following applies: Compound concentration 1.0 uM.
For experiment [2], the target named is Myosin light chain kinase 2, skeletal/cardiac muscle (Homo sapiens) (UniProt Q9H1R3). Put plainly: MYLK2 Invitrogen kinase activity assay. The conditions noted are these: Compound concentration 1.0 uM.
The target in experiment [3] is CDK6/cyclin D3 (Homo sapiens) (UniProt P30281+Q00534). The experiment can be described thus: CDK6/cyclinD3 Invitrogen kinase activity assay. It counts as protein-complex assay. The following applies: Compound concentration 1.0 uM.
Experiment [4] has as its target Tyrosine-protein kinase Lck (Homo sapiens) (UniProt P06239). The experiment can be described thus: LCK Invitrogen kinase activity assay. The following applies: Compound concentration 1.0 uM.
Experiment [5] has as its target Vascular endothelial growth factor receptor 2 (Homo sapiens) (UniProt P35968). Put plainly: VEGFR2/Flk1 Invitrogen kinase activity assay. The following applies: Compound concentration 1.0 uM.
Experiment [6] has as its target NEK kinase (Homo sapiens) (UniProt P51955+Q9HC98+Q8TDX7+Q6P3R8+Q8TD19+Q8NG66+P51956+P51957+Q96PY6+Q86SG6+Q6ZWH5). Put plainly: NEK Invitrogen kinase activity assay. The following applies: Compound concentration 1.0 uM. The experiment is classed as protein assay.
Experiment [7] deals with 5-hydroxytryptamine receptor 1A (Homo sapiens) (UniProt P08908). The following applies: Compound concentration 10.0 uM.
Experiment [8] deals with 5-hydroxytryptamine receptor 1E (Homo sapiens) (UniProt P28566). The following applies: Compound concentration 10.0 uM.
Experiment [9] has as its target Serine/threonine-protein kinase PAK 4 (Homo sapiens) (UniProt O96013). Put plainly: PAK4 Invitrogen kinase activity assay. The conditions noted are these: Compound concentration 1.0 uM.
Experiment [10] has as its target Calcium/calmodulin-dependent protein kinase type 1 (Homo sapiens) (UniProt Q14012). Put plainly: CAMK1 Invitrogen kinase activity assay. The following applies: Compound concentration 1.0 uM.
Experiment [11] deals with Glycogen synthase kinase-3 beta (Homo sapiens, UniProt P49841). The experiment can be described thus: GSK3beta Invitrogen kinase activity assay.
Experiment [12] deals with RAC-alpha serine/threonine-protein kinase (Homo sapiens) (UniProt P31749). Put plainly: AKT1 Invitrogen kinase activity assay. The following applies: Compound concentration 1.0 uM.
Experiment [13] deals with Epidermal growth factor receptor (Homo sapiens) (UniProt P00533). The experiment can be described thus: EGFR Invitrogen kinase activity assay. The following applies: Compound concentration 1.0 uM.
Experiment [14] concerns the target T1, Inhibitor of nuclear factor kappa-B kinase subunit beta (Homo sapiens) (UniProt O14920).
T1 sequence (whole entry): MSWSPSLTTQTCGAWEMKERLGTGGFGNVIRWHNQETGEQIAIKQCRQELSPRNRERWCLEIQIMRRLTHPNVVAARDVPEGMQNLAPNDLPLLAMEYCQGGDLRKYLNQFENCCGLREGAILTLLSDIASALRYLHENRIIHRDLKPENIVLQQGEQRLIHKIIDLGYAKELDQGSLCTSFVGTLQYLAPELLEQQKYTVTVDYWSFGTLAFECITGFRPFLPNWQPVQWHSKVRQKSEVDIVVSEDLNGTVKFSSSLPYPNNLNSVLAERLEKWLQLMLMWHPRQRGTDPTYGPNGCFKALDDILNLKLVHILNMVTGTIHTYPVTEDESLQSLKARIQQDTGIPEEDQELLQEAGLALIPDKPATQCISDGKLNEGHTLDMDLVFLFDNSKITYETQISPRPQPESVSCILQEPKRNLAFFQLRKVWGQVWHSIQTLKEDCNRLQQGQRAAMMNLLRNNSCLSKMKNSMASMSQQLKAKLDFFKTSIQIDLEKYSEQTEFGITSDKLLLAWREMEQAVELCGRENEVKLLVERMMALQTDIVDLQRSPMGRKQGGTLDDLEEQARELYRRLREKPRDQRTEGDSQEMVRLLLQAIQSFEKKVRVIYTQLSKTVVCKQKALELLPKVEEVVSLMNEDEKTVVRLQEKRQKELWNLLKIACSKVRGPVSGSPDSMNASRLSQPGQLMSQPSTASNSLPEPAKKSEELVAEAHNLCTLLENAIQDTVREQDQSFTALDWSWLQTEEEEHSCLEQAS
The experiment can be described thus: IKKβ Invitrogen kinase activity assay. The conditions noted are these: Compound concentration 1.0 uM.

Experiment [15] concerns the target Tyrosine-protein kinase Lyn (Homo sapiens, UniProt P07948). Put plainly: Cerep profiling assay (LYN). On the set-up: compound concentration 10 uM.
Experiment [16] concerns the target Serine/threonine-protein kinase Chk2 (Homo sapiens) (UniProt O96017). The experiment can be described thus: CHK2 Invitrogen kinase activity assay. The conditions noted are these: Compound concentration 1.0 uM.
In experiment [17] the target is Proto-oncogene tyrosine-protein kinase Src (Homo sapiens, UniProt P12931). Put plainly: SRC Invitrogen kinase activity assay.
Experiment [18] deals with Cyclin-dependent kinase 2/cyclin A (Homo sapiens) (UniProt P24941+P20248+P78396). The experiment can be described thus: (§1) CDK2/cyclinA Invitrogen kinase activity assay. It counts as protein-complex assay. The conditions noted are these: Compound concentration 1.0 uM.
In experiment [19] the target is Cyclin-dependent kinase 2/cyclin A (Homo sapiens, UniProt P24941). The experiment is described as §1. The experiment is classed as protein-complex assay.
Experiment [20] has as its target Serine/threonine-protein kinase pim-2 (Homo sapiens) (UniProt Q9P1W9). Put plainly: PIM2 Invitrogen kinase activity assay. The following applies: Compound concentration 1.0 uM.
Experiment [21] has as its target Hepatocyte growth factor receptor (Homo sapiens) (UniProt P08581). Put plainly: MET Invitrogen kinase activity assay. The following applies: Compound concentration 1.0 uM.
The target in experiment [22] is Serine/threonine-protein kinase 26 (Homo sapiens) (UniProt Q9P289). The experiment can be described thus: MASK Invitrogen kinase activity assay. The conditions noted are these: Compound concentration 1.0 uM.
In experiment [23] the target is Tyrosine-protein kinase JAK3 (Homo sapiens, UniProt P52333). The experiment can be described thus: JAK3 Invitrogen kinase activity assay.
Experiment [24] deals with Sigma intracellular receptor 2 (Homo sapiens, UniProt Q5BJF2). The experiment can be described thus: GPCRScan assay: inhibition of Sigma 2. The arrangement: radioligand conc. used [nm] 5.0, parental cells HEKT.
The target in experiment [25] is 5-hydroxytryptamine receptor 1D (Homo sapiens) (UniProt P28221). The conditions noted are these: Compound concentration 10.0 uM.
Experiment [26] addresses D(2) dopamine receptor (Homo sapiens) (UniProt P14416). The conditions noted are these: Compound concentration 10.0 uM.
The target in experiment [27] is GABA-A receptor; anion channel (Rattus norvegicus) (UniProt O09028+P15431+P18506+P18508+P19969+P20236+P23574+P23576+P28471+P28473+P30191+P62813+P63079+P63138+Q91ZM7+Q9ES14). The conditions noted are these: Compound concentration 10.0 uM.
In experiment [28] the target is Beta-2 adrenergic receptor (Homo sapiens) (UniProt P07550). The conditions noted are these: Compound concentration 10.0 uM.
Experiment [29] is described as follows: GPCRScan assay: inhibition of GABA/PBR. On the set-up: species or system Rattus norvegicus; radioligand conc. used [nm] 0.3 – 2.0, parental cells brain tissue.

Proto-oncogene tyrosine-protein kinase Src, sequence (P12931 2-536 limits assumed): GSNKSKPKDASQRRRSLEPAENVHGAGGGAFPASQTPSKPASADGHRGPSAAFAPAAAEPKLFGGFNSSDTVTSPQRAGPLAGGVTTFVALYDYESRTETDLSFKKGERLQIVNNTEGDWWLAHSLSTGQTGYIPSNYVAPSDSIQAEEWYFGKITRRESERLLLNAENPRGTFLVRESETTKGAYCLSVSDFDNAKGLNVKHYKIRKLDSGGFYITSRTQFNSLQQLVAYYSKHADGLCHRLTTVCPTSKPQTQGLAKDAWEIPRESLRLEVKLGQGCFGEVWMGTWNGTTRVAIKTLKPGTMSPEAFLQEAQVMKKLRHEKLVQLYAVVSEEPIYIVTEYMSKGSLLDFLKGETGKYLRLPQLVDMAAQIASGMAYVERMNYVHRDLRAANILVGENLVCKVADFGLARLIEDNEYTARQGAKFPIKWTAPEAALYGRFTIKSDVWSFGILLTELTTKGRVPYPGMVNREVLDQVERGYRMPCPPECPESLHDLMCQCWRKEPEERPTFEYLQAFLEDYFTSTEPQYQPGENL
Beta-2 adrenergic receptor (Homo sapiens), sequence (P07550 whole entry, looked up): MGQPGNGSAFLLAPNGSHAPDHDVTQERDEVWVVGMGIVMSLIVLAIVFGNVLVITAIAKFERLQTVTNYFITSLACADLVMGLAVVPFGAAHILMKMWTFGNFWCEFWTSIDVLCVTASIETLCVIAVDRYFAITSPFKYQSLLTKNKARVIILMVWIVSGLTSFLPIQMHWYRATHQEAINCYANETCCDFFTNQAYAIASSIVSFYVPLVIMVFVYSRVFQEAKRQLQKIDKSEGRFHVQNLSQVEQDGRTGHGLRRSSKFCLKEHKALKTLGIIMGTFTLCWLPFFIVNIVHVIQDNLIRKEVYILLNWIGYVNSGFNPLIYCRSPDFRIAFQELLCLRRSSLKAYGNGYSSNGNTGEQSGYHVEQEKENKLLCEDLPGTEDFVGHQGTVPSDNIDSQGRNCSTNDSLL
Tyrosine-protein kinase Lyn, sequence (P07948 whole entry): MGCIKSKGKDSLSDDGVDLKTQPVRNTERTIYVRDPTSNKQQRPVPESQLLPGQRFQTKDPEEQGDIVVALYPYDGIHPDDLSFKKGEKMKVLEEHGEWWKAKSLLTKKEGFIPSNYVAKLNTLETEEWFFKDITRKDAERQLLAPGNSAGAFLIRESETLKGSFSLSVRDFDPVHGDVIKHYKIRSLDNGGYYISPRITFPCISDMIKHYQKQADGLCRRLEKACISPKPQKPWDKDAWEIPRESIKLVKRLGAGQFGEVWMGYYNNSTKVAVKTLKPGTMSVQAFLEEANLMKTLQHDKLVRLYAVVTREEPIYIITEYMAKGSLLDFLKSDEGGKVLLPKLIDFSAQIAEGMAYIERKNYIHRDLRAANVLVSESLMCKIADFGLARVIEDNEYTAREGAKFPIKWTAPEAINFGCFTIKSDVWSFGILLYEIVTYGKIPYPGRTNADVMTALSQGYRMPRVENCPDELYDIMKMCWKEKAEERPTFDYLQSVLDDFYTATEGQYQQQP
5-hydroxytryptamine receptor 1E (Homo sapiens), sequence (P28566 whole entry): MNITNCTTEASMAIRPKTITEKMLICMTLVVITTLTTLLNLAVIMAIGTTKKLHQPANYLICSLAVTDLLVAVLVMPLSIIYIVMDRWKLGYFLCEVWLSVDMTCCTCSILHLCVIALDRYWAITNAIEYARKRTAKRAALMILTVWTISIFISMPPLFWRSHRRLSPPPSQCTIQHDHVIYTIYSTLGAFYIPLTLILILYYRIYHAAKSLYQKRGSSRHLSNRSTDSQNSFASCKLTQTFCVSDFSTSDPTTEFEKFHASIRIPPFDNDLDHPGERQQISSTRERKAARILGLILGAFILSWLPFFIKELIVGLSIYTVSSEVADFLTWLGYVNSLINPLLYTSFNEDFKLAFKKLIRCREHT
5-hydroxytryptamine receptor 1A (Homo sapiens), sequence (P08908 whole entry): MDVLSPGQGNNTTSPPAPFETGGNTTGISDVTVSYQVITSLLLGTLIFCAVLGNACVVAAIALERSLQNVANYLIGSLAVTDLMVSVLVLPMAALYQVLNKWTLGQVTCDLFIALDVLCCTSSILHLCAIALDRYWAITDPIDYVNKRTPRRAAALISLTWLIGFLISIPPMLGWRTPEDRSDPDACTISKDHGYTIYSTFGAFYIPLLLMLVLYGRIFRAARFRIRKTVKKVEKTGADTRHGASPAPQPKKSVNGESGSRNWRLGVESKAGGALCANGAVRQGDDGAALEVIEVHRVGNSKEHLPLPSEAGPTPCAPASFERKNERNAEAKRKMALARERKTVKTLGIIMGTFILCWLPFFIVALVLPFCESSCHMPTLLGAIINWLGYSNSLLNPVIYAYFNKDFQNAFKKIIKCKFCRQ
Casein kinase I isoform delta (Homo sapiens), sequence (P48730 whole entry, looked up, canonical isoform): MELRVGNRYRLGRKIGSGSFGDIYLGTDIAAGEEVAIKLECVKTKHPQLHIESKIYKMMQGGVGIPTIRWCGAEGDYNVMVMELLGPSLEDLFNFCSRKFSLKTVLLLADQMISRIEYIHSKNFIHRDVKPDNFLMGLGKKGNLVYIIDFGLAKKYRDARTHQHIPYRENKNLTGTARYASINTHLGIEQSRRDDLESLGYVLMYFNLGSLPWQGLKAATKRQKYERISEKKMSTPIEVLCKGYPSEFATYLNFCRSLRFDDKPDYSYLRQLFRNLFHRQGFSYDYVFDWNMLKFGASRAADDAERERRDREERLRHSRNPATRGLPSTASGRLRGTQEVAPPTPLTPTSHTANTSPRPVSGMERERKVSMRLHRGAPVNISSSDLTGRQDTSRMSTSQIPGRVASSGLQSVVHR
5-hydroxytryptamine receptor 1D (Homo sapiens), sequence (P28221 whole entry): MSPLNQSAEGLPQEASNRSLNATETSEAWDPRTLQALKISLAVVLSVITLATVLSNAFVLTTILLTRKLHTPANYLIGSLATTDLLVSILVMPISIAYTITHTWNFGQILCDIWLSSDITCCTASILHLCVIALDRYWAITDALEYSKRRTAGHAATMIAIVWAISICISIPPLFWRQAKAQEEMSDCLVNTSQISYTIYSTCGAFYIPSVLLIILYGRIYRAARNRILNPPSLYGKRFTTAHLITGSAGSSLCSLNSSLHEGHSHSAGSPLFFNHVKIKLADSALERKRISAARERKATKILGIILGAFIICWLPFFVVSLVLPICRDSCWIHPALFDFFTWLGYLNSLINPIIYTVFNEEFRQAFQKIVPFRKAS
Serine/threonine-protein kinase pim-2 (Homo sapiens), sequence (Q9P1W9 whole entry, looked up): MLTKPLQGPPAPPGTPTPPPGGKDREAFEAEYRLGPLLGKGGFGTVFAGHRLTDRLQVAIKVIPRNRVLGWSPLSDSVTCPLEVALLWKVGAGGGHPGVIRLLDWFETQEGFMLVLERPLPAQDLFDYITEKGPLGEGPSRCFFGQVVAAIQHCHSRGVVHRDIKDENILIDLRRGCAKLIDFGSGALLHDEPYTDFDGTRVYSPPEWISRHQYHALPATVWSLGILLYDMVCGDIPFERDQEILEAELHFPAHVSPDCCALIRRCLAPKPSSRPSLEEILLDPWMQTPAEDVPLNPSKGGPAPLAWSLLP
Tyrosine-protein kinase JAK3, sequence (P52333 whole entry): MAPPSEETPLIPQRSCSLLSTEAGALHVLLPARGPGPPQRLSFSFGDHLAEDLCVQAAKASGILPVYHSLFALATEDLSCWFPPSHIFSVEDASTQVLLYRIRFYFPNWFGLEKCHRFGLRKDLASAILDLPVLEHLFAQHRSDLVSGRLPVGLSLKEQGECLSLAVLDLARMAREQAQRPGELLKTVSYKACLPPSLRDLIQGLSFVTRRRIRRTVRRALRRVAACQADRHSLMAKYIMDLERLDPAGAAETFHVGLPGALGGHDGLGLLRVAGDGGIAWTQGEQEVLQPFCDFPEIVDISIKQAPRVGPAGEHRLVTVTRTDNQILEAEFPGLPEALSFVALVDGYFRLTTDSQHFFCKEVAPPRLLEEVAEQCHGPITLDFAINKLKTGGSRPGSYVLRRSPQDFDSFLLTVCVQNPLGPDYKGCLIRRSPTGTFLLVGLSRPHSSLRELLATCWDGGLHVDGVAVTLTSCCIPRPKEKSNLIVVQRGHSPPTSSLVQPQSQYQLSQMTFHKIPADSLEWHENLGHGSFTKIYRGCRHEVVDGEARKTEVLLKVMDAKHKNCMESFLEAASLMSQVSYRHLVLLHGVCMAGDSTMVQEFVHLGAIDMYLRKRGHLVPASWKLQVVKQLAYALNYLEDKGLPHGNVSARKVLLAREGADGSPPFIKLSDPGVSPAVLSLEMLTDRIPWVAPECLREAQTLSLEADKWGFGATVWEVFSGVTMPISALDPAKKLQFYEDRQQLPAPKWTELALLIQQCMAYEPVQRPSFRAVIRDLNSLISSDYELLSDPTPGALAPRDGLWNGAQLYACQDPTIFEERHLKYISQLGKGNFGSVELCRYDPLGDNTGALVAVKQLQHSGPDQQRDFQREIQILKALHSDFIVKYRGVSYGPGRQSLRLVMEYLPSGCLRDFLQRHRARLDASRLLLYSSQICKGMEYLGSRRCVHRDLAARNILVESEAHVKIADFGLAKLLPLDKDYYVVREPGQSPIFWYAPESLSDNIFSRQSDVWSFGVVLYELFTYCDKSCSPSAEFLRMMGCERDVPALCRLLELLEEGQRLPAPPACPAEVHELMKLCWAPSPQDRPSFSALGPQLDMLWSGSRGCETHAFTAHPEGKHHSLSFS
Serine/threonine-protein kinase 26 (Homo sapiens), sequence (Q9P289 2-416 limits assumed): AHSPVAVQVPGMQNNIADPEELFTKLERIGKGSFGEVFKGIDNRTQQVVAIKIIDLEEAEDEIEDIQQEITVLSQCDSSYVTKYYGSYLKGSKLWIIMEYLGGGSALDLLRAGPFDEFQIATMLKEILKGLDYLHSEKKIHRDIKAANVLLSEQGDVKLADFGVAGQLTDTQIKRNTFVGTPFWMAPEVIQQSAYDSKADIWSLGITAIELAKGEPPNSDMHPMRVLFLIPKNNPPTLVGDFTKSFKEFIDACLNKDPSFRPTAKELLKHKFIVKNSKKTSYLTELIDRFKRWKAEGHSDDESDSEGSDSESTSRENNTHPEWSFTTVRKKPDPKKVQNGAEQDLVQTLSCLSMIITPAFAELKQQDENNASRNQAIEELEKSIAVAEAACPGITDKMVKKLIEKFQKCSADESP

Turning to `CNC(=O)c1ccc(Nc2ncc(C(F)(F)F)c(NCc3nccnc3N(C)S(C)(=O)=O)n2)cc1` [DEFACTINIB], the inhibition is 27% in [1]; 8% in experiment [2]; 13% in [3]; 39% in [4]; 68% in [5]; 12% in experiment [6]. Further, the inhibition in [7] was -9.76%; in [8], 18.2%; in [9] it was 69%; in experiment [10], 0%; in experiment [11] (Compound concentration 1.0 uM), 83%; in experiment [12], 4%. In addition, the inhibition was 13% in [13]; 4% in experiment [14]; 28% in experiment [16]; 58% in [17] (Compound concentration 1.0 uM); 72% in [18]; 0% in experiment [20]. Moreover, the inhibition in [21] is 54%; in experiment [22], 46%. Moreover, the IC50 is 416 nM in experiment [11]; 1100 nM (not active) in [15]; more than 1000 nM in experiment [17]; 344 nM in [19]; more than 1000 nM in experiment [23].
On to `CN(c1ccnc(CNc2nc(Nc3ccc4c(c3)CC(=O)N4)ncc2C(F)(F)F)n1)S(C)(=O)=O` [PF-00911705], for which the Ki came out at 2120 nM in experiment [24] and 1480 nM in [29]. For the same compound, the inhibition in experiment [25] was 0.19%; in experiment [26] it was 9.12%; in experiment [27], 10.3%; in experiment [28], 15.3%. The pKi in experiment [29] worked out at 5.83.
